Test results reported in patent publication US20100286098A1, “USE OF TETRAHYDROCANNABINOL AND/OR CANNABIDIOL FOR THE TREATMENT OF INFLAMMATORY BOWEL DISEASE” (GW Pharma Limited, priority 2007, published 2010).

How the values were obtained:
Format in all cases: in vivo, rat
[1] = test system: myeloperoxidase (MPO) activity; assay: TNBS model of colitis, myeloperoxidase (MPO) activity; details: for MPO, mean: 72 h after TNBS
Procedure: (§1) In this example, the TNBS (trinitrobenzenesulfonic acid) model of colitis was used to characterize the effects of CBD alone, THC alone and a combination of CBD and THC (in two different ratios) on inflammation and in vitro motility and secretory parameters.
(§2) Colitis was evoked in male Wistar rats by intra-colonic administration of 6.7 mg TNBS in 0.25 ml 25% ethanol. The degree of inflammation was quantified using a macroscopic damage score (MDS, 0-13 scale) and myeloperoxidase (MPO) activity.
(§3) CBD was used at doses of 5, 10, 15 and 20 mg/kg. THC was used at doses of 5, 10 and 20 mg/kg. In addition THC at doses of 5 and 10 mg/kg was administered in combination with CBD at a dose of 10 mg/kg.
(§4) Doses were administered i.p., once daily starting 0.5 hour before TNBS administration and animals (n=6-11 per group) were sacrificed 72 hours after colitis induction.

[2] = test system: TNBS (trinitrobenzenesulfonic acid) model of colitis; assay: TNBS model of colitis, macroscopic damage score (MDS); details: for MDS, mean: 72 h after TNBS, 0-13 scale
Procedure: as §1, §2, §3, §4

[3] = test system: mucosa-submucosa preparations; assay: Ussing chamber, secretory response evoked by veratridine (nerve stimulation), TNBS colitis rats
Procedure: (§5) Using the Ussing chamber technique, secretory responses evoked by veratridine (a nerve stimulant, 1×10^−5M) were assessed and expressed as % response to carbachol (1×10−5M).
as §3, §4

[4] = test system: mucosa-submucosa preparations; assay: Ussing chamber, secretory response to carbachol (ΔIsc), TNBS colitis rats; details: THC alone, data not shown
Procedure: as §5, §3, §4

Row | SMILES | MPO, mean ([1]; CBD 5 mg/kg i.p. once daily, vehicle 6.03) [ngHRP/mg protein] | MPO, mean ([1]; CBD 10 mg/kg i.p. once daily, vehicle 6.03) [ngHRP/mg protein] | MPO, mean ([1]; CBD 15 mg/kg i.p. once daily, vehicle 6.03) [ngHRP/mg protein] | MPO, mean ([1]; CBD 20 mg/kg i.p. once daily, vehicle 6.03) [ngHRP/mg protein] | effect on MPO across doses ([1]; CBD 5, 10, 15 and 20 mg/kg i.p.) | MDS, mean ([2]; CBD 5 mg/kg i.p. once daily, vehicle 5.46) | MDS, mean ([2]; CBD 15 mg/kg i.p. once daily, vehicle 5.46) | MDS, mean ([2]; CBD 20 mg/kg i.p. once daily, vehicle 5.46) | secretory response to nerve stimulation ([3]; THC 10 mg/kg i.p. alone, expressed as % response to carbachol, vehicle 24.4±8.2) | secretory responses to nerve stimulation ([3]; THC alone, data not shown) | MPO, mean ([1]; THC 5 mg/kg i.p. once daily, vehicle 3.35) [ngHRP/mg protein] | MDS, mean ([2]; THC 5 mg/kg i.p. once daily, vehicle 6.00) | MDS, mean ([2]; THC 20 mg/kg i.p. once daily, vehicle 6.00) | dose-response relationship on MDS ([2]; THC 5, 10 and 20 mg/kg i.p.) | responses to carbachol [4]
1 | C=C(C)[C@@H]1CCC(C)=C[C@H]1c1c(O)cc(CCCCC)cc1O [CBD, cannabidiol] | 5.38 | 4.65 | 4.00 | 2.68 | reduced MPO in a dose dependent manner, but the effect was not significant | 6.75 | 5.60 | 4.60 |  |  |  |  |  |  | 
2 | CCCCCc1cc(O)c2c(c1)OC(C)(C)[C@@H]1CCC(C)=C[C@@H]21 [THC, tetrahydrocannabinol] |  |  |  |  |  |  |  |  | 30.3±7.5 | did not affect | 4.29 | 6.5 | 4.67 | bell-shaped pattern | not significantly increased
